Reference: paper PMC10600239, “Selective MCL-1 inhibitor ABBV-467 is efficacious in tumor models but is associated with cardiac troponin increases in patients” (Communications Medicine, 2023)
Like-named read-outs stand apart in the source and are kept apart here.

How the values were obtained:
human MCL-1 = human MCL-1 (Homo sapiens, UniProt Q07820); experiment: Time-resolved FRET binding assay
Description: Test compounds were serially diluted in DMSO starting at […] (20× starting concentration; 100% DMSO followed by a 1:10 dilution of the compound DMSO plate into assay buffer); 10 µL of the compound in 10% DMSO was then transferred into a 384-well plate (low-volume Corning #3673 assay plate). Glutathione S-transferase (GST)-tagged recombinant BCL-2, BCL-XL, MCL-1, BCL-W, or BCL2-A1 protein (1 nM each) were mixed with 100 nM Oregon Green™-labeled f-BAK peptide probe and 1 nM Tb-labeled anti-GST antibody were mixed. Then 10 µL of a 2× protein/probe/antibody mix was added to each well of increasing concentrations of test compound in assay buffer (20 mM potassium phosphate, pH 7.6, 50 mM NaCl, 1 mM ethylenediaminetetraacetic acid disodium salt dihydrate, 0.05% pluronic acid F-68, 1 mM DL-dithiothreitol) at room temperature (final concentrations listed in Supplementary Table S2). The samples were then mixed on a shaker for 1 min and incubated for an additional 1 h at room temperature. For each assay plate, a probe/antibody and protein/antibody/probe mixture were included as a negative and a positive control, respectively. Fluorescence was measured on the EnVision™ (Perkin Elmer) using a 340/35-nm excitation filter and 520/525- (F-Bak) and 495/510-nm (Tb-labeled anti-glutathione S-transferase [GST] antibody) emission filters. Dissociation constants were determined using Wang’s equation[35]. The time-resolved FRET assay can be performed in the presence of varying concentrations of human serum to determine apparent half-maximal inhibitory concentration after serum protein binding.

[1] = target: off-target receptors, ion channels, and transporters (Homo sapiens, UniProt P00533); experiment: Off-target profiling (Supplementary Data 1); conditions: TR-FRET Kinome; Invitrogen A-1224127.6 .1(Subs Conc)
[2] = target: off-target receptors, ion channels, and transporters (Homo sapiens, UniProt P08581); experiment: Off-target profiling (Supplementary Data 1); conditions: TR-FRET Kinome; Invitrogen A-1196581.2 .003(Subs Conc)
[3] = target: off-target receptors, ion channels, and transporters (Homo sapiens, UniProt P08908); experiment: Off-target profiling (Supplementary Data 1)
[4] = target: off-target receptors, ion channels, and transporters (Homo sapiens, UniProt P17948); experiment: Off-target profiling (Supplementary Data 1); conditions: TR-FRET Kinome; Invitrogen A-1167389.7 .0125(Subs Conc)
[5] = target: off-target receptors, ion channels, and transporters (Homo sapiens, UniProt P34947); experiment: Off-target profiling (Supplementary Data 1); conditions: TR-FRET Kinome; Invitrogen A-1180691.2 .1(Subs Conc)
[6] = target: off-target receptors, ion channels, and transporters (Homo sapiens, UniProt P37231); experiment: Off-target profiling (Supplementary Data 1); conditions: Bioprofiling 6pt Ag
[7] = target: off-target receptors, ion channels, and transporters (Homo sapiens, UniProt P49841); experiment: Off-target profiling (Supplementary Data 1); conditions: TR-FRET Kinome; Invitrogen A-1169612.6 .006(Subs Conc)
[8] = target: off-target receptors, ion channels, and transporters (Homo sapiens, UniProt Q07912); experiment: Off-target profiling (Supplementary Data 1); conditions: TR-FRET Kinome; Invitrogen A-1169612.6 .025(Subs Conc)
[9] = target: off-target receptors, ion channels, and transporters (Homo sapiens, UniProt Q08881); experiment: Off-target profiling (Supplementary Data 1); conditions: TR-FRET Kinome; Invitrogen A-1224615.7 .025(Subs Conc)
[10] = target: off-target receptors, ion channels, and transporters (Homo sapiens, UniProt Q13627); experiment: Off-target profiling (Supplementary Data 1); conditions: TR-FRET Kinome; Invitrogen A-1180691.2 .0125(Subs Conc)
[11] = target: off-target receptors, ion channels, and transporters (Homo sapiens, UniProt Q14164); experiment: Off-target profiling (Supplementary Data 1); conditions: TR-FRET Kinome; Invitrogen A-1167389.7 .003(Subs Conc)
[12] = target: off-target receptors, ion channels, and transporters (Homo sapiens, UniProt Q8IU85); experiment: Off-target profiling (Supplementary Data 1); conditions: TR-FRET Kinome; Invitrogen A-1167389.7 .025(Subs Conc)
off-target receptors, ion channels, and transporters (Homo sapiens, UniProt Q8IU85), sequence (Q8IU85 whole entry): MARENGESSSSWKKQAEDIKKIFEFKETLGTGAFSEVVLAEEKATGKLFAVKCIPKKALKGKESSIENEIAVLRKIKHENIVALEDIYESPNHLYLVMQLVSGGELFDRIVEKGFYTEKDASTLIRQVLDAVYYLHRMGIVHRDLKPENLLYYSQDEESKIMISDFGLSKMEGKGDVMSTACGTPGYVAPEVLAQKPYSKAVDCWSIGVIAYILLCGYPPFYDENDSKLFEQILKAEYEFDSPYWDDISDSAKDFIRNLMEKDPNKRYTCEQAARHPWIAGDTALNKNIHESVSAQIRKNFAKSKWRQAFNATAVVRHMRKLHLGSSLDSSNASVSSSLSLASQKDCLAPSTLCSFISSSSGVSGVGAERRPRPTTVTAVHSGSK

human MCL-1, sequence (Q07820 whole entry): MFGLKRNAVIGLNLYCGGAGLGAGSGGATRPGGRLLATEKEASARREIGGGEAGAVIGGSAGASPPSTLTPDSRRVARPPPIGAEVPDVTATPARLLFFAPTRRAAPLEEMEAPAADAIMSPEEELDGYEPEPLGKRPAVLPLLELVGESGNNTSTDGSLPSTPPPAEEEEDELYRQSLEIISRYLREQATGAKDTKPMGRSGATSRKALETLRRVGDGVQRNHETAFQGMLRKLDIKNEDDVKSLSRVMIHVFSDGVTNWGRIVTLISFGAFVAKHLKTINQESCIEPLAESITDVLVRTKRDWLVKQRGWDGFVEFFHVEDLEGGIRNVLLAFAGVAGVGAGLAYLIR
off-target receptors, ion channels, and transporters (Homo sapiens, UniProt P08908), sequence (P08908 whole entry): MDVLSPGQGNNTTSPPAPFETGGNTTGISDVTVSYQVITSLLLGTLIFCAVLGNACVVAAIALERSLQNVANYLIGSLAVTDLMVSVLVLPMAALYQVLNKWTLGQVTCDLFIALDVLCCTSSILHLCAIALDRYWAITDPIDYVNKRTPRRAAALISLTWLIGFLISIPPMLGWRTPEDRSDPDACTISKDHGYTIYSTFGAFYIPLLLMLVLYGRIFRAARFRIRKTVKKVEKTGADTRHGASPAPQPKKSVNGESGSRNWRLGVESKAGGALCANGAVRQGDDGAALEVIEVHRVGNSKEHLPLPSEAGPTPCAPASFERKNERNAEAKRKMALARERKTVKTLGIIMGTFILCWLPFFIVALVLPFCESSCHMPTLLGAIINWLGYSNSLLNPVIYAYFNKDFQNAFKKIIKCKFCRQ
off-target receptors, ion channels, and transporters (Homo sapiens, UniProt P34947), sequence (P34947 whole entry): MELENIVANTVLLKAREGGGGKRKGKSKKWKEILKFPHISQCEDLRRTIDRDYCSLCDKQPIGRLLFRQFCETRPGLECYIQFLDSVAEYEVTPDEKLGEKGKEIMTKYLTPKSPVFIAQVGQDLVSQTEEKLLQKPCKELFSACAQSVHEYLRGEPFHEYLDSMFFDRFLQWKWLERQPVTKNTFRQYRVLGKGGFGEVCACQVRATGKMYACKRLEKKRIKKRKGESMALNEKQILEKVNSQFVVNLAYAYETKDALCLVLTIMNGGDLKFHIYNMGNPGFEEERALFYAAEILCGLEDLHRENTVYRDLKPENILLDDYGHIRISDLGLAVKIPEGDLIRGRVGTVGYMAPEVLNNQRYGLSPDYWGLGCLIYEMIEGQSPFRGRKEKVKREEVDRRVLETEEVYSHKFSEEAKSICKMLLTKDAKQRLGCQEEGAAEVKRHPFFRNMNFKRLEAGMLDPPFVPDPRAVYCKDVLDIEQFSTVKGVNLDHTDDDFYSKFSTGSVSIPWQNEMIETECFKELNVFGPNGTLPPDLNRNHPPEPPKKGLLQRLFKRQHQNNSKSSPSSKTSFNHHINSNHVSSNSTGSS
off-target receptors, ion channels, and transporters (Homo sapiens, UniProt P49841), sequence (P49841 whole entry): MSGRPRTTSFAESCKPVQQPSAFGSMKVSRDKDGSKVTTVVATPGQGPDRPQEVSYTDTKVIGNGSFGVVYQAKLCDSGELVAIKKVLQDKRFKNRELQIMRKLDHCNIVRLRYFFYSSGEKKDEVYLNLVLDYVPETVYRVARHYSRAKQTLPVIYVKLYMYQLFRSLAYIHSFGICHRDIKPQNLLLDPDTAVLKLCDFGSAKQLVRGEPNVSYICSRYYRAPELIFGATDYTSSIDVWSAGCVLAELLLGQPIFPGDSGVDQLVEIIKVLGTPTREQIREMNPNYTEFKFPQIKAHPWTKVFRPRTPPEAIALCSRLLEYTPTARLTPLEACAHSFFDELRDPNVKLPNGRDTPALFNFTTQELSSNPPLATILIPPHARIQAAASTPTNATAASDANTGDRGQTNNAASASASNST
off-target receptors, ion channels, and transporters (Homo sapiens, UniProt P00533), sequence (P00533 25-1210): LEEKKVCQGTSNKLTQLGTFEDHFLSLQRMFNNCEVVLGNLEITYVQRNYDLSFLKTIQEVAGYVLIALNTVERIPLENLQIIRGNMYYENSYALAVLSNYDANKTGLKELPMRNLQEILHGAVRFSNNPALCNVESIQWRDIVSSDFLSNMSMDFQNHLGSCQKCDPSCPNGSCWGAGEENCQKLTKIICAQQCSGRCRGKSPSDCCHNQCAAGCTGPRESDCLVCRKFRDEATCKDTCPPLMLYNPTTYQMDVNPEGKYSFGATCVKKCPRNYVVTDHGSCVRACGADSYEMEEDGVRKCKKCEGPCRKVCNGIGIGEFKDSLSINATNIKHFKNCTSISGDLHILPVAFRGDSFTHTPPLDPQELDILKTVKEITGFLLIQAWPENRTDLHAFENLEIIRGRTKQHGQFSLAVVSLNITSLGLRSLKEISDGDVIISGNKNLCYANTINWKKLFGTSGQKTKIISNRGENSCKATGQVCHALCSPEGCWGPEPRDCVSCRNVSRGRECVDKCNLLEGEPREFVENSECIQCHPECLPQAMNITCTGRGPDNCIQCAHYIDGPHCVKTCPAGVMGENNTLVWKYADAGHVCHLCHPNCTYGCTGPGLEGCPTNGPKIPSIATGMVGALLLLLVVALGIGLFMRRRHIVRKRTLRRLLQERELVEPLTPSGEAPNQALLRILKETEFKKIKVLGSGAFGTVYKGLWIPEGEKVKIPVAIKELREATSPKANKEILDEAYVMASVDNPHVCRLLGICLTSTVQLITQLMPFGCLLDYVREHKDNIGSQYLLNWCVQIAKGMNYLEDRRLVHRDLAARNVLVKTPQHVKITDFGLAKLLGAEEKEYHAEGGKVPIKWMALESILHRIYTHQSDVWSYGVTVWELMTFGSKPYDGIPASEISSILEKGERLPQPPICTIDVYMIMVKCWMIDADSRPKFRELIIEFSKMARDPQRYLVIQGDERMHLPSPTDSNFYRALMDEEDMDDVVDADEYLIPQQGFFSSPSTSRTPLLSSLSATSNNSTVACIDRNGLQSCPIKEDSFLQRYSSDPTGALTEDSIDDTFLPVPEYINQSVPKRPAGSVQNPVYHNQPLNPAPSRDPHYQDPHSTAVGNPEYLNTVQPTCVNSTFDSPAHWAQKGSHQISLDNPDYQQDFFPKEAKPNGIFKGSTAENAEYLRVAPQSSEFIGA
off-target receptors, ion channels, and transporters (Homo sapiens, UniProt Q14164), sequence (Q14164 whole entry): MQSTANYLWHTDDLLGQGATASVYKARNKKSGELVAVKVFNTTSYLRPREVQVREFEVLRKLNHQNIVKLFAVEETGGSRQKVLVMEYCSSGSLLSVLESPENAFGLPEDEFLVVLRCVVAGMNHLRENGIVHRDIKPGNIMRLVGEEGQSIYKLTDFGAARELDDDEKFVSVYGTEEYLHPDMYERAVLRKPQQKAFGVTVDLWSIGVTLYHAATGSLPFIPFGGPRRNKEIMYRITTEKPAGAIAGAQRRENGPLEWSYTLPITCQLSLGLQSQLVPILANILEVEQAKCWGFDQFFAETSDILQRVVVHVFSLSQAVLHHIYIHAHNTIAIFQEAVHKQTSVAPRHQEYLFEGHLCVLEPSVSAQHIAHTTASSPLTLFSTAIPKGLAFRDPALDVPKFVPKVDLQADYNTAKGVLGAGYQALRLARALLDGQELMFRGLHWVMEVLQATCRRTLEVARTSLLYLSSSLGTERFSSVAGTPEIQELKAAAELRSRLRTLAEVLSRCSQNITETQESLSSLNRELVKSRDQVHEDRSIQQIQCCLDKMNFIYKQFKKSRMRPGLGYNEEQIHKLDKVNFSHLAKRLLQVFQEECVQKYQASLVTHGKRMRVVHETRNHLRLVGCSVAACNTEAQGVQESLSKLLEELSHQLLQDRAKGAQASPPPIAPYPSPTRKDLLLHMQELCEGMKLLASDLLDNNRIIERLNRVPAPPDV
off-target receptors, ion channels, and transporters (Homo sapiens, UniProt P37231), sequence (P37231 whole entry): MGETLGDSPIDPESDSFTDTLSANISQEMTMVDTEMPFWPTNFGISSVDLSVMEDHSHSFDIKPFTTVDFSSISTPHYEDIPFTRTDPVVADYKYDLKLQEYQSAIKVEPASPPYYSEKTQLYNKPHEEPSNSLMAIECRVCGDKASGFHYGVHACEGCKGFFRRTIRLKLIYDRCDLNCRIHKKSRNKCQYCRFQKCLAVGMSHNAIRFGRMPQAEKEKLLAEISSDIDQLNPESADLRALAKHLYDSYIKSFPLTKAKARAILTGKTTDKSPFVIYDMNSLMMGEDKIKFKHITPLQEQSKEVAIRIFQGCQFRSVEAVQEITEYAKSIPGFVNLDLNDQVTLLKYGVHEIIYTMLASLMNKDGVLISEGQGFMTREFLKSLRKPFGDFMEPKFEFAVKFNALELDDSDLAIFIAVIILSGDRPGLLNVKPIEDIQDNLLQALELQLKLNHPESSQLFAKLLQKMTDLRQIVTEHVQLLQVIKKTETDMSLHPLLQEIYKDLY

Cc1c(Cl)c2c(Cl)c(C)c1-c1c(-c3ccc(F)cc3)sc3ncnc(c13)O[C@@H](C(=O)O)Cc1cc(ccc1OCc1ccnc(-c3ccc(OC[C@H]4COCCO4)cc3)n1)OC[C@@H](CN1CCN(C)CC1)O2 [ABBV-467]
< 0.01 nM: Ki (human MCL-1; TR-FRET, arithmetic mean, read-out: Arithmetic Mean Ki, MCL1) | Ki (human MCL-1; TR-FRET, individual determinations, read-out: Individual Ki, MCL1) | Ki (human MCL-1; read-out: TR-FRET, Ki, nM MCL-1)
9.9 µM: Gsk3b - IC50 [7]
> 10 µM: EGFR - IC50 [1] | cMET - IC50 [2] | 5-HT1A CHO Human - EC50 ([3]; Bioprofiling 6pt Ag) | 5-HT1A CHO Human - IC50 ([3]; Bioprofiling 6pt Antag, 5-Carboxytryptamine (5-CT)) | Flt1 - IC50 [4] | GRK5 - IC50 [5] | PPARgamma Human - EC50 [6] | TNK2 - IC50 [8] | ITK - IC50 [9] | Dyrk1A - IC50 [10] | IKKE - IC50 [11] | CAMK1D - IC50 [12]
